Assay results from publication PMC9124820, “In vitro evaluation of fenfluramine and norfenfluramine as victims of drug interactions” (Pharmacology Research & Perspectives, 2022).

Legend:
[1] = Metabolic stability and metabolite identity, dog intestinal S9 fractions; type: in vitro ADME
Procedure: LC‐MS/MS analyses to assess metabolic stability and identify the transporter substrate were performed using an API 4000 QTRAP mass spectrometer (SCIEX, Framingham, MA) with electrospray ionization in positive mode. Chromatography was performed using an Atlantis dC18 analytical column (100 × 2.1 mm, 5 µm; Waters Corporation, Milford, MA). Mobile phases were 0.2% v/v formic acid in water and 0.2% v/v formic acid in acetonitrile. For metabolic stability experiments, FFA and metabolites were eluted at a flow rate of 0.6 mL/min, with a linear gradient of 20%−80% acetonitrile from 0.30−2.0 min. For transporter substrate experiments, the gradient was slightly modified to achieve suitable chromatography. The mass transitions monitored were 232.0 > 159.0 for FFA and 348.0 > 330.0 for 1ʹ‐OH‐midazolam‐d4 internal standard. […]
FFA (1 or 10 µM) was incubated with liver and intestinal S9 fractions (2 mg protein/mL) at 37 ± 1°C in 0.2‐mL incubation mixtures containing potassium phosphate buffer (50 mM, pH 7.4), magnesium chloride (MgCl2) (3 mM), and EDTA (1 mM, pH 7.4), in the presence or absence of a three‐component cofactor mixture (NADPH‐generating system, uridine diphosphate glucuronic acid (UDPGA) [8 mM], and 3’‐phosphoadenosine 5’‐phosphosulfate [0.5 mM]). […] Supernatant fractions were analyzed by LC‐MS/MS.
(§1) To characterize substrate loss and metabolic stability, duplicate samples were analyzed by LC‐MS/MS to determine the change in substrate concentration over the incubation period. The rate constant of elimination (kel, min^−1) was determined from the time course of substrate loss based on single exponential decay (A(t)=A0(‐kelt)) . Half‐life in vitro was determined by the following equation: t1/2 = 0.693/kel. The in vitro intrinsic clearance (CLint) was calculated from the rate constant of elimination as follows: CLintμL/min/mgprotein=kelmin^‐1×incubationvolume(μL)/mgproteinperincubation.
(§2) Percent loss of substrate was determined by normalizing the mean analyte peak‐area ratio at each time point to the average of four replicates at the 0‐min time point (100%).

[2] = Metabolic stability and metabolite identity, human liver S9 fractions; type: in vitro ADME
Procedure: LC‐MS/MS analyses to assess metabolic stability and identify the transporter substrate were performed using an API 4000 QTRAP mass spectrometer (SCIEX, Framingham, MA) with electrospray ionization in positive mode. Chromatography was performed using an Atlantis dC18 analytical column (100 × 2.1 mm, 5 µm; Waters Corporation, Milford, MA). Mobile phases were 0.2% v/v formic acid in water and 0.2% v/v formic acid in acetonitrile. For metabolic stability experiments, FFA and metabolites were eluted at a flow rate of 0.6 mL/min, with a linear gradient of 20%−80% acetonitrile from 0.30−2.0 min. For transporter substrate experiments, the gradient was slightly modified to achieve suitable chromatography. The mass transitions monitored were 232.0 > 159.0 for FFA and 348.0 > 330.0 for 1ʹ‐OH‐midazolam‐d4 internal standard.
For metabolic characterization experiments, LC‐MS/MS analyses were performed using an Acquity Ultra Performance Liquid Chromatography system with an in‐line photodiode array detector and ethylene bridged hybrid C18 columns (2.1 × 100 mm, 1.7 µm; Waters Corporation) coupled to a Synapt G2 HDMS QTOF (Waters Corporation). Mobile phases were 0.1% v/v formic acid in water and 0.1% v/v formic acid in methanol. FFA and metabolites were eluted at a flow rate of 0.5 mL/min with a linear gradient of 2.0%−35% methanol from 1.0−10.0 min. The mass spectrometer was operated in positive mode with electrospray ionization. Data were acquired over the range 50−1200 m/z (mass‐to‐charge ratio) using capillary voltage, 3.5 kV; extraction cone voltage, 4.0 V; source temperature, 120°C; and desolvation temperature, 350°C. A continuous lock mass reference compound, fexofenadine, was sampled at 10‐s intervals for centroid data mass correction. Data were processed with MetaboLynx XS, a component of MassLynx (v. 4.1) software (Waters Corporation).
FFA (1 or 10 µM) was incubated with liver and intestinal S9 fractions (2 mg protein/mL) at 37 ± 1°C in 0.2‐mL incubation mixtures containing potassium phosphate buffer (50 mM, pH 7.4), magnesium chloride (MgCl2) (3 mM), and EDTA (1 mM, pH 7.4), in the presence or absence of a three‐component cofactor mixture (NADPH‐generating system, uridine diphosphate glucuronic acid (UDPGA) [8 mM], and 3’‐phosphoadenosine 5’‐phosphosulfate [0.5 mM]). The NADPH‐generating system consisted of NADP (1 mM, pH 7.4), glucose‐6‐phosphate (5 mM, pH 7.4), and glucose‐6‐phosphate dehydrogenase (1 U/mL). Reactions were initiated by adding the cofactor mix and were stopped at 0, 30, 60, or 120 min by adding an equal volume of acetonitrile. Cofactor controls were incubations performed in parallel in the absence of cofactor for 120 min. Additional incubations were performed with midazolam (10 μM) as a positive control to establish the metabolic competence of test systems. Samples were centrifuged at 920 × g for 10 min at 10°C. Supernatant fractions were analyzed by LC‐MS/MS.
as §1, §2

[3] = intestinal S9 fractions, pH 7.4, 1 µM FFA, dog intestine S9 fractions, outside assay detection limits
[4] = pH 7.4, 1 µM FFA, human liver S9 fractions 2 mg protein/mL, outside assay detection limits

CCNC(C)Cc1cccc(C(F)(F)F)c1 (racemic) [FFA, (RS)‐ethyl (α‐methyl‐3‐trifluoromethylphenethyl)amine]
percentage of FFA substrate loss at 10 µM relative to 1 µM ([1]; dog intestinal S9 fractions, higher at 10 µM than at 1 µM): about 2 fold
half-life at 1 µM [1, 3]: > 2 h
microsomal CLint at 1 µM [1, 3]: < 2.9 µL/min/mg
percent of the drug remaining ([2]; human liver S9, 1 μM FFA with cofactors, 30 min): 1.9%
percent of the drug remaining ([2]; human liver S9, 1 μM FFA with cofactors, 60 min): 11.1%
percent of the drug remaining ([2]; human liver S9, 1 μM FFA with cofactors, 120 min): 20.9%
percent of the drug remaining ([2]; human liver S9, 1 μM FFA, absence of the cofactors): 21.6%
percent of the drug remaining ([2]; human liver S9, 10 μM FFA, absence of the cofactors): 22.9%
half-life at 1 µM [2, 4]: > 2 h
microsomal CLint at 1 µM [2, 4]: < 2.9 µL/min/mg
clearance accounted for in vivo (CYP inhibition by stiripentol/clobazam plus renal clearance): approximately 80%
maximum possible amount remaining for metabolism by MAO (human, in vivo, 0.1 mg/kg twice daily): ≤ 20%
